Data as given in patent publication US5149688A, “Methods, compounds, and compositions for immunosuppression” (priority 1990, dated 1992).
Like-named read-outs stand apart in the source and are kept apart here.

Legend:
dihydrofolate reductase = settings: cited from earlier work
[1] = tested on: rheumatoid arthritis (RA); settings: human, in vivo; cited from earlier work
lymphocytes [2] = experiment: Phytohemagglutinin A (PHA) assay; assay type: cell-based; settings: Lymphocyte, read-out: concentration giving 50% inhibition, PHA assay
Text: (§1) The following studies sought to characterize the immunosuppressive activities of ABA, both as to in vitro and in vivo efficacy in experimental systems. It is important to point out that the results obtained from the in vitro systems are generally predictive of the in vivo immunosuppressive properties of the ABA. More specifically, the assays used here are mixed lymphocyte response (MLR) and phytohemagglutinin A (PHA) assays which are valuable for identifying immune suppressive molecules in vitro, and that the results obtained therefrom are generally predictive of their in vivo effectiveness. The assays are further described below.
A second assay widely used to study immune responsiveness is mitogenic stimulation of lymphocytes with mitogenic substances of plant origin. The most widely used plant molecule is PHA.
(§2) Thus, it will be appreciated as to both the mixed lymphocyte and PHA assay that they are valuable for identifying immune suppressive molecules in vitro, and that the results obtained therefrom are generally predictive of their in vivo effectiveness.

lymphocytes [3] = experiment: Primary mixed lymphocyte response (MLR) assay; assay type: cell-based; settings: read-out: concentration giving 50% inhibition, primary MLR assay
Text: as §1
The in vitro mixed lymphocyte assay is presently employed in the clinical setting as an indicator of histocompatibility, and is premised on the transformation of resting genetically dissimilar lymphocytes into cells which synthesize DNA and undergo proliferation.
as §2

lymphocytes [4] = experiment: Secondary mixed lymphocyte reaction (2'-MLR) assay; assay type: cell-based; settings: read-out: concentration inhibiting 50% of the stimulatory activity, 2'-MLR
Text: In addition to the above immunosuppressive assays, a secondary mixed lymphocyte reaction assay was applied to ABA. The secondary mixed lymphocyte assays differs from the primary mixed lymphocyte reaction assays in that they employ many more primed responder cells that are responsive to the primary stimulating cells. The presence of such responsive cells is a reflection of immunological memory in an ongoing immunological response. […] Generally between 10% to 50% of the original input cells are recovered in viable condition. These cells are then used in the secondary mixed lymphocyte reaction.
The procedure for carrying out a secondary mixed lymphocyte reaction is described by T. Meoen, Immunological Methods, Eds I. Lefkoivits and B. Pernis, […], New York (1979). It will be appreciated that described therein is a method for carrying out secondary lymphocyte reactions using mouse cells, however such methods are generally applicable to performing secondary mixed lymphocyte reactions using human cells with modifications that are well known to those skilled in the art.

adjuvant arthritis (AA) [5] = tested on: adjuvant arthritis (AA)
adjuvant arthritis (AA) [6] = experiment: Prophylactic effect of SA on adjuvant arthritis in rats (Example 1); assay type: in vivo, male Lewis rats
[7] = Plasma levels of SA during CI therapy (HPLC); assay type: in vivo, male Lewis rats; settings: 400 mg/kg/day CI; for concentration at 216 h: rat, plasma, sc, 400 mg/kg/day
adjuvant arthritis (AA) [8] = experiment: Therapeutic effect of SA on AA (Example 2); assay type: in vivo, rats
Experimental: The following experiments examined the therapeutic effect of SA on the progression of AA. In these studies, the treatments with SA began at day 5 after the rats had been immunized with M.Tb in their left footpads. At this time, the activation of lymphoid cells with M.Tb was well established and the appearance of mononuclear cells at the joint has been reported as the earliest histologic findings. Billingham, 1983, Pharma. Theory, 21: 389.
325 mg/kg/day of SA was administered by subcutaneous pump infusion from day 5 until day 19. The control animals received isotonic and isovolumic NaCl control.
A parallel group of animals were treated with daily intraperitoneal injections of 800 mg/kg/day of SA (FIGS. 6 and 7). This was done to compare the relative efficacy of continuous infusion versus a single daily intraperitoneal injection.

adjuvant arthritis (AA) [9] = experiment: Comparative efficacy of MTX and SA in suppressing onset of AA (Example 3); assay type: in vivo, Lewis rats
Experimental: On the same day, pumps were surgically implanted into the first two groups. The first group received SA at 300 mg/kg/day through the pumps. The second group, which served as the control, received continuous infusion of 2.5M NaCl through the pumps.

[10] = tested on: established adjuvant arthritis (AA); experiment: Comparative efficacy of SA and MTX in the treatment of established arthritis (Example 4); assay type: in vivo, male Lewis rats
Experimental: Three groups of 15 male Lewis rats were injected with M.Tb on day 0 in the left hindpaw. […] On day 16, subcutaneous pumps were placed in the SA and control groups. SA was administered at 300 mg/kg/day by CI. The control group received 2.5M NaCl. […] Treatment was continued to day 30.

adjuvant arthritis (AA) [11] = experiment: Long term suppression of AA using combined SA and MTX treatment (Example 6); assay type: in vivo, male Lewis rats; settings: SA 300 mg/kg/day IP or MTX 0.9 mg/kg/week IP, day 5 to 15
Experimental: On day 0, three groups of 10 male Lewis rats were injected with M.Tb in oil suspension, as in previous examples. […] The animals were evaluated for arthritis development.

[12] = rat, in vivo
Experimental: (§3) Isotonic and isovolumic saline was used as the control in this subcutaneous infusion treatment regimen (hereinafter referred to as SQ, or continuous infusion, CI, regimen). The treatment was started on day -4 prior to M.Tb injection (day 0). The pumps were calculated to infuse until day 10. Ten rats were used in each group.

[13] = tested on: delta-aminolevulinic dehydratase; settings: cited from earlier work
allogeneic tumors = settings: rats; cited from earlier work
[14] = Body weight / toxicity of rats under prophylactic SA treatment; settings: SA level necessary for suppression of AA
Experimental: as §3

adjuvant arthritis (AA) [15] = experiment: Therapeutic treatment of AA with SA and/or MTX, summary of set of experiments run in triplicate
Experimental: In the SA and MTX combined treatment regimen, the SA was administered in an amount ranging from 150-300 mg/kg/day. The MTX was administered three times a week in IP injections, at a total of 0.9 mg/kg/week.

[16] = SA 300 mg/kg/day CI, day 16 to 30

CN(Cc1cnc2nc(N)nc(N)c2n1)c1ccc(C(=O)N[C@@H](CCC(=O)O)C(=O)O)cc1 [MTX, Methotrexate]
inhibition of dihydrofolate reductase (dihydrofolate reductase): inhibits dihydrofolate reductase

CC(C)(S)[C@@H](N)C(=O)O [D-penicillamine]
toxic side effects [1]: causes bone marrow depression and renal toxicity

CC(=O)CC(=O)c1ccccc1C(=O)O [ABA, 2-acetoacetyl benzoic acid]
IC50 (lymphocytes [2]): 91 ± 60 µM | IC50 (lymphocytes [3]): 870 ± 280 µM | IC50 (lymphocytes [4]): ~1600 µM | footpad swelling at day 19, 4 days after cessation (adjuvant arthritis (AA) [5]; ABA 400 mg/kg/day IP): decreased footpad swelling | suppression of AA, ABA compared with SA (adjuvant arthritis (AA) [5]; ABA 400 mg/kg/day IP vs SA 800 mg/kg/day IP): ABA is more efficacious than SA in suppressing AA | footpad swelling, clinical disease scores and incidence of arthritis during administration (adjuvant arthritis (AA) [5]; ABA 400 mg/kg/day IP, FIGS. 14 and 15): AA was suppressed; the footpad swelling, clinical disease scores and incidence of arthritis were all lowered | Arthritis Incidence (adjuvant arthritis (AA) [5]; ABA 100 in ABA/PEG formulation, day 12): 100% | Arthritis Incidence (adjuvant arthritis (AA) [5]; ABA 100 in ABA/PEG formulation, day 19): 100% | suppression of arthritis (adjuvant arthritis (AA) [5]; ABA 200 and 100 mg/kg/day IP): did not show observable suppression of arthritis | Arthritis Incidence (adjuvant arthritis (AA) [5]; ABA 200 in ABA/PEG formulation, day 12): 100% | Arthritis Incidence (adjuvant arthritis (AA) [5]; ABA 200 in ABA/PEG formulation, day 19): 100% | Arthritis Incidence (adjuvant arthritis (AA) [5]; ABA 400 in ABA/PEG formulation, daily IP day 5 to 15, day 12, control 100%): 40% | Arthritis Incidence (adjuvant arthritis (AA) [5]; ABA 400 in ABA/PEG formulation, day 19 (4 days after cessation)): 100% | suppression of AA at 400 mg/kg/day, post-immunization regimen (adjuvant arthritis (AA) [5]; ABA given IP): ABA suppressed AA at 400 mg/kg/day when given IP in a post-immunization regimen

CC(=O)CC(=O)CCC(=O)O [SA, Succinylacetone]
arthritis severity, dose dependence (adjuvant arthritis (AA) [6]; SA 400 and 200 mg/kg/day CI, day -4 to day 10): inhibited arthritis severity in a dose dependent manner | right footpad swelling and arthritis in non-injected extremities (adjuvant arthritis (AA) [6]; SA 400 and 200 mg/kg/day, SQ ALZET pumps, day -4 to day 10, FIGS. 1 and 2): suppression of clinical arthritis | histologic arthritis of the joints (adjuvant arthritis (AA) [6]; SA treated cohort, CI): found to suppress histologic arthritis | concentration ([7]; blood collected on day 9, individual rats SA-C1, SA-C2, SA-C3, 12960 min, 12960 min, read-out: SA Level (plasma)): 50 µM | concentration at 216 h ([7]; blood collected on day 9, individual rats SA-C1, SA-C2, SA-C3, read-out: SA Level (plasma)): 44 µM | concentration at 216 h ([7]; day 9, HPLC, read-out: plasma SA levels associated with clinical suppression of arthritis): 40 to 50 µM | continuous infusion versus daily IP injection (adjuvant arthritis (AA) [8]; 325 mg/kg/day CI vs 800 mg/kg/day IP): continuous infusion results in greater suppression at a lower dose than does daily IP injection | right hindpaw swelling and clinical severity of arthritis (adjuvant arthritis (AA) [8]; SA 325 mg/kg/day SQ pump infusion, day 5 to 19, FIGS. 4 and 5): Right hindpaw swelling and clinical severity of arthritis was suppressed | arthritis during treatment (adjuvant arthritis (AA) [8]; SA 325 mg/kg/day continuous infusion): completely suppressed during treatment | day until which the clinical scores did not increase (adjuvant arthritis (AA) [8]; SA 325 mg/kg/day continuous infusion, day 5 to 19): 36 days | increase in clinical scores relative to saline treated animals (adjuvant arthritis (AA) [8]; SA 325 mg/kg/day continuous infusion, from day 36): less than half of the saline treated animals | suppression of AA beyond termination of treatment (adjuvant arthritis (AA) [8]; SA 800 mg/kg/day IP, FIG. 7): did not suppress the AA beyond the termination of the treatment regimen | day by which groups reached equivalent severity to the controls (adjuvant arthritis (AA) [8]; SA 800 mg/kg/day, daily IP): ≤ 33 days | footpad swelling after termination of treatment (adjuvant arthritis (AA) [8]; SA 800 mg/kg/day, daily IP): an attenuated increase in footpad swelling was observed, however, the swelling was less than that found in the controls | footpad swelling during treatment (adjuvant arthritis (AA) [8]; SA 800 mg/kg/day, daily IP, FIG. 6): suppression of footpad swelling until the treatment stopped | clinical severity of arthritis (adjuvant arthritis (AA) [8]; SA 800 mg/kg/day, daily IP, FIG. 7): delayed the clinical severity of the arthritis | suppression of arthritis, both regimens (adjuvant arthritis (AA) [8]; continuous infusion and daily IP injections): resulted in suppression of arthritis | suppression of AA based on disease incidence (adjuvant arthritis (AA) [9]; SA 300 mg/kg/day CI): maximal suppression of AA based on the disease incidence | footpad swelling, SA compared with MTX (adjuvant arthritis (AA) [9]; SA 300 mg/kg/day CI vs MTX […] and 3 mg/kg/week): trend towards greater inhibition | incidence of arthritis (adjuvant arthritis (AA) [9]; SA 300 mg/kg/day CI, day 14, FIG. 9): no incidence of arthritis on day 14 | footpad swelling suppression (adjuvant arthritis (AA) [9]; SA 300 mg/kg/day CI, MTX 2.4 and 3 mg/kg/week IP, FIG. 8): significant suppression | right footpad diameter, progression from day 23 to 63 ([10]; SA 300 mg/kg/day CI or MTX […] IP, day 16 to 30, FIG. 10): did not increase significantly | persistence of lack of further swelling after cessation of treatment [10, 16]: up to 33 days | progression / regression of established arthritis [10, 16]: SA prevented progression of AA, but because the disease had already established itself at the onset of treatment, SA did not cause regression of the arthritis | mean right hindpaw thickness ([10]; day 23, SA 300 mg/kg/day CI or MTX […] IP from day 16, control 321, normal about 170 U): 258 U | suppression of AA, single drugs IP (adjuvant arthritis (AA) [11]): AA was not suppressed | body weight [12]: allowed weight gain | suppression of the disease by SA using this treatment protocol (adjuvant arthritis (AA) [5]; SA 800 mg/kg/day IP): only transient suppression of the disease | inhibition of delta-aminolevulinic dehydratase [13]: potent inhibitor | tumorigenicity of allogeneic tumors (allogeneic tumors): enhance tumorigenicity of allogeneic tumors in rats | toxicity [14]: non-toxic to the animals at the level necessary for suppression of AA | CI versus IP regimen at suppressing the AA (adjuvant arthritis (AA) [15]; 300 to 400 mg/kg/day CI vs 800 mg/kg/day IP): The CI regimen was more effective than the IP regimen at suppressing the AA | suppression of AA without death or weight loss (adjuvant arthritis (AA) [15]; SA 300 to 400 mg/kg/day CI or 800 mg/kg/day IP): suppressed AA without causing death or weight loss in the rats | SA dose at which AA was suppressed without death or weight loss, IP (adjuvant arthritis (AA) [15]; daily intraperitoneal injection): 800 mg/kg/day
